Consider 72 compounds from PubChem BioAssay AID179 (DTP/NCI, 2004).

Active and inactive are the calls of the source.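 Rule for the calls: active = compounds giving half or more protection of infected cells from virus-caused growth loss, again on retest; inactive = the rest.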 Where a SMILES comes first, the peptide text is derived from it. Side-chain parts run from the residue outwards. The star is where a group is joined. Cbz = O=C(OCc1ccccc1)*; Boc = CC(C)(C)OC(=O)* Where only a bound is given, the exact number is not on record here.

The test has as its system CEM cells HIV-1 protection, formazan growth assay. Put plainly: NCI AIDS Antiviral Assay. As to conditions: for IC50: measured here: growth of uninfected CEM cells. The procedure, abridged:
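Soluble formazan readout of cell growth; CEM cells ± HIV-1; 5 drug concs. ≥50% protection → retest; ≥50% again = moderately active; reproducible 100% = confirmed active.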

As to `CC(C)(C)OC(=O)NC(CCCCNC(=O)CNC(=O)OCc1ccccc1)C(=O)NC(CCCCNC(=O)CNC(=O)OCc1ccccc1)C(=O)NC(CCCCNC(=O)CNC(=O)OCc1ccccc1)C(=O)NC(CCCCNC(=O)CNC(=O)OCc1ccccc1)C(=O)O` (stereo unspecified) (Boc-K([Gly-Cbz])K([Gly-Cbz])K([Gly-Cbz])K([Gly-Cbz])-OH; configuration not given here), the half-maximal effective concentration (EC50) (commonly the concentration needed to bring the measured effect to its halfway point) was 72.4 µM and the concentration for half-maximal inhibition (IC50) (in general, the concentration at which inhibition is half-maximal) is greater than 100 µM.
For `C(=C\c1ccc2ccccc2n1)/c1cccnc1` the same measures were greater than 214 µM and 12 µM.
In the case of `CC(=O)NNC(=S)/N=C/c1c(C)[nH]n(-c2ccccc2)c1=O`, the outcome was inactive.
For `NC1=NC2(COC(c3ccccc3)(c3ccccc3)c3ccccc3)OC(COC(c3ccccc3)(c3ccccc3)c3ccccc3)C(O)C2O1` (stereo unspecified), the EC50 was greater than 200 µM and the IC50 stood at 12 µM.
For `CCC(=O)NC(Nc1cc(C)on1)(C(F)(F)F)C(F)(F)F`, the EC50 was greater than 200 µM and the concentration for half-maximal inhibition (IC50) was greater than 200 µM.
In the case of `CSc1cc(C(=O)Nc2ccc(C3=NCCN3)cc2)ccc1C(=O)Nc1ccc(C2=NCCN2)cc1`, the EC50 is greater than 141 µM and the 50% inhibitory concentration (IC50) stood at 72.4 µM.
As for `CCOC(=O)Cc1oc2c(C(C)=O)c(O)c(C)c(O)c2c1C`, the EC50 was greater than 200 µM and the IC50 is 81.3 µM.
For `CN(C)CCCOC(=O)C1C[C@@H](O)CN1C(=O)c1ccc2c(c1)OCO2` (stereo partly specified) the same measures were greater than 200 µM and greater than 200 µM.
With `COC(F)(F)C12CC3CC(CC(C3)C1)C2`, the outcome was inactive.
For `c1cnc2c(c1)ccc1cccnc12`, the EC50 is greater than 200 µM and the IC50 was determined as 1.17 µM.
`O=C(O)c1ccc2c(c1C(=O)O)C(=O)c1ccccc1C2=O` showed a concentration for a half-maximal effect (EC50) greater than 200 µM and an IC50 greater than 200 µM.
Take `CC1CCC(=O)NCCCCC(=O)N1` (stereo unspecified): the EC50 was greater than 36.3 µM and the half-maximal inhibitory concentration (IC50) was greater than 36.3 µM.
As to `CCCCCCCCCCCCCC(=O)OCC(C[As](=O)(O)O)OC(=O)CCCCCCCCCCCCC` (stereo unspecified), the EC50 was greater than 11.5 µM and the half-inhibitory concentration (IC50) is greater than 11.5 µM.
Regarding `O=c1[nH]nc(Cc2ccccc2)n1-n1cnnc1`, the EC50 is greater than 200 µM and the concentration for half-maximal inhibition (IC50) is greater than 200 µM.
`O=[N+]([O-])c1ccc(NN=C(c2ccccc2)c2ccccc2)c([N+](=O)[O-])c1`: the EC50 is greater than 52.5 µM and the concentration for half-maximal inhibition (IC50) is greater than 52.5 µM.
In the case of `CSc1nc2[nH]ccc2c(=O)[nH]1`, the outcome was inactive.
In the case of `C[C@H]1OCN2C(=O)c3ccccc3SC(=O)[C@H]12`, the EC50 is greater than 200 µM and the IC50 is greater than 200 µM.
With `O=C1c2cn[nH]c2N=C(Nc2ccccc2)C1N=Cc1ccc([N+](=O)[O-])cc1` (stereo unspecified), the EC50 is greater than 200 µM and the half-inhibitory concentration (IC50) was 102 µM.
For `CC(C)(C)N/N=C(/Cc1nc2c3c(ccc2[nH]c1=O)C(=O)c1ccccc1C3=O)C(=O)NC1=C(Cl)C(=O)c2ccccc2C1=O` the same measures were greater than 11.5 µM and greater than 11.5 µM.
For `CC(C)C1CNC2N1C(=O)C2(C)OCc1ccccc1` (stereo unspecified) the same measures were greater than 251 µM and 155 µM.
In the case of `CN(C)N=Nc1cn[nH]c1C(N)=O`, the EC50 was greater than 138 µM and the half-inhibitory concentration (IC50) came out at 6.76 µM.
As to `COCC#C[C@@]1(O)CCCCC1CC(OC)OC` (stereo partly specified), the EC50 was greater than 200 µM and the IC50 worked out at 112 µM.
As to `Nc1[nH]nc2nc3n(c(=O)c12)CCCCC3`, the EC50 was greater than 45.7 µM and the IC50 is greater than 45.7 µM.
For the compound `O=C(O)C(C(F)(F)F)C(F)(F)F` (tested in a mixture with another compound), the EC50 is greater than 200 µM and the IC50 was greater than 200 µM.
In the case of `Clc1c2ccccc2[se][n+]1Cc1ccccc1`, the EC50 is greater than 15.1 µM and the IC50 turned out to be 12.3 µM.
Consider `CCC(C)C(NC(=O)C(N)CCCCN)C(=O)NC(CCC(=O)O)C(=O)NC(CO)C(=O)NC(C(=O)O)C(C)O` (stereo unspecified) (H-KIEST-OH; configuration not given here), for which the result was inactive.
On to `CCOC(=O)c1[nH]c2c(cc(C(=O)C(F)(F)F)c3ccccc32)c1C(F)(F)F`, for which the EC50 was greater than 17.8 µM and the half-maximal inhibitory concentration (IC50) was greater than 17.8 µM.
Take `COc1ccc(C(=O)N2CCN(c3ccc4[nH]c(=O)oc4c3)CC2)cc1`: the EC50 is greater than 200 µM and the IC50 is greater than 200 µM.
On to `S=c1sc2c(Cl)ncnc2n1-c1ccccc1`, for which the EC50 was greater than 67.6 µM and the IC50 came to 3.63 µM.
On to `COC(=O)c1ccc2c(c1)CC1(C2)Cc2cc3c(cc2C1=O)CCC3` (stereo unspecified), for which the EC50 was greater than 200 µM and the concentration for half-maximal inhibition (IC50) stood at 20 µM.
For `CCOP(=O)(CC(=O)NC(C(N)=O)C(C)C)OCC` (stereo unspecified) the same measures were greater than 100 µM and 52.5 µM.
Consider `Cc1cccc(NC(=O)CSc2nnc(Cc3ccccc3)o2)c1`, for which the EC50 was greater than 537 µM and the half-inhibitory concentration (IC50) was greater than 537 µM.
In the case of `O=C(/C(=C\c1ccc(Cl)cc1)c1ccccc1)c1ccccc1`, the EC50 was greater than 11.7 µM and the half-inhibitory concentration (IC50) is greater than 11.7 µM.
Consider `Cc1ccc2[nH]c3[nH]c(=S)[nH]c(=O)c3c2c1`, for which the concentration for a half-maximal effect (EC50) was 22.4 µM and the IC50 was 162 µM.
On to `CCCCCNP1(NCCCCC)=NP(NCCCCC)(NCCCCC)=NP(NCCCCC)(NCCCCC)=NP(NCCCCC)(NCCCCC)=N1`, for which the EC50 was greater than 50.1 µM and the IC50 is greater than 50.1 µM.
Take `CC(C)(C)OC(=O)NC(Cc1ccccc1)C(=S)N1CCCC1` (stereo unspecified): the half-maximal effective concentration (EC50) was 56.2 µM and the IC50 came out at 141 µM.
Turning to `O=[N+]([O-])c1nccn1CCCN=c1c2ccccc2n(O)c2ccccc12`, the EC50 was greater than 200 µM and the IC50 turned out to be 46.8 µM.
On to `COC1OC2COc3ccccc3OC2C(NC(N)=S)C1OC` (stereo unspecified), for which the EC50 was greater than 132 µM and the IC50 was determined as 41.7 µM.
`CC1=NN(C(=O)c2ccc(Cl)cc2)C(=O)/C1=C/c1ccc(Cl)cc1`: the EC50 was greater than 10.5 µM and the half-maximal inhibitory concentration (IC50) is greater than 10.5 µM.
Consider `CCCCOC(=O)NC(Nc1cccc(C(F)(F)F)c1)(C(F)(F)F)C(F)(F)F`, for which the EC50 was greater than 200 µM and the half-maximal inhibitory concentration (IC50) came to 50.1 µM.
Take `COc1cc2c(c(OC)c1OC)C(=O)[C@@H](OC(=O)CCCCl)[C@H]2N`: the EC50 is greater than 200 µM and the half-inhibitory concentration (IC50) was greater than 200 µM.
With `O=S(=O)(O)c1ccc(N=Nc2cc(S(=O)(=O)O)c3ccccc3c2O)c2ccccc12`, the EC50 is greater than 100 µM and the concentration for half-maximal inhibition (IC50) was greater than 100 µM.
With `CCN(CC)CC(=O)Nc1ccc(CO)cc1`, the EC50 was greater than 200 µM and the IC50 is greater than 200 µM.
For `CC(C)(C)c1cc(N=NC(=S)NCc2ccccc2)cc(C(C)(C)C)c1O`, the EC50 was greater than 7.08 µM and the half-inhibitory concentration (IC50) is greater than 7.08 µM.
As for `C[n+]1c2ccccc2c(NCC(=O)O)c2ccccc21`, the outcome was inactive.
Consider `Cc1csc2c(P(=O)(OC(C)C)OC(C)C)c(-c3ccccc3)cn12`, for which the EC50 was greater than 200 µM and the IC50 is 33.1 µM.
As to `CC(=O)Nc1ccc(C(=O)N2N=C(C)/C(=C/c3ccc(O)cc3)C2=O)cc1`, the EC50 is greater than 37.2 µM and the IC50 was greater than 37.2 µM.
On to `CC1(C)OOC(O)C=C1c1ccccc1` (stereo unspecified), for which the EC50 is greater than 126 µM and the IC50 is greater than 126 µM.
For `CCCCCC(/C=C/c1ncccc1OCCCCCC(=O)O)=N\NC1=NCCN1`, the EC50 is greater than 44.7 µM and the IC50 was greater than 44.7 µM.
Take `CC(=O)Nc1cc2cc(NS(=O)(=O)c3cc(C(F)(F)F)cc(C(F)(F)F)c3)ccc2oc1=O`: the EC50 is greater than 27.5 µM and the IC50 is greater than 27.5 µM.
With `CCOC(=O)C1=C(Nc2ccc(Cl)cc2Cl)OC/C1=N\NS(=O)(=O)c1ccc(C)cc1`, the EC50 is greater than 28.2 µM and the half-maximal inhibitory concentration (IC50) is greater than 28.2 µM.
Turning to `CCOC(=O)N1N(c2ccccc2)C(=O)C1(c1ccccc1)c1ccccc1`, the EC50 is greater than 200 µM and the IC50 was 135 µM.
For `CC1=NC=C(O)c2ccccc2O1`, the EC50 is greater than 40.7 µM and the half-maximal inhibitory concentration (IC50) was greater than 40.7 µM.
For `C1C2CC3C1C1C[S+]3CC21` (stereo unspecified), the EC50 is greater than 380 µM and the concentration for half-maximal inhibition (IC50) was greater than 380 µM.
For the compound `Cc1cccc(C)c1NC(=O)CCCC(=O)C1CCC/C1=N\NC(=O)C(=O)NN` (stereo unspecified), the EC50 is greater than 64.6 µM and the 50% inhibitory concentration (IC50) was greater than 64.6 µM.
Turning to `O=c1ccn(C/C=C/c2ccccc2)c(=S)n1C/C=C/c1ccccc1`, the result was inactive.
As for `O=c1[nH]c(C2CCCCC2)nc2ccc(Cl)cc12`, the outcome was inactive.
Regarding `CC(=O)n1c(=S)n(C(C)=O)c2ccccc21`, the EC50 is greater than 200 µM and the concentration for half-maximal inhibition (IC50) is greater than 200 µM.
As to `N#Cc1c(N)c2c(c(-c3ccccc3)c1-c1ccccc1)C(=O)N(O)C2=O`, the EC50 is greater than 200 µM and the IC50 worked out at 44.7 µM.
In the case of `COc1ccc2c(c1)CCC1C3(CCCC21C)OCCO3` (stereo unspecified), the EC50 was greater than 100 µM and the IC50 is 20.4 µM.
For `Cc1ccc2c(n1)NC(=O)C(Cc1ccccc1)(N=[N+]=[N-])C2=O` (stereo unspecified) the same measures were greater than 200 µM and greater than 200 µM.
For `Oc1ccc(CCC2CCNc3ccccc32)cc1` (stereo unspecified), the EC50 is greater than 5.01 µM and the IC50 is greater than 5.01 µM.
`COC(=O)[C@@]1(C)CCC[C@]2(C(=O)O)C3Cc4occc4[C@H](C)[C@@H]3CCC21` (stereo partly specified) registered a concentration for a half-maximal effect (EC50) greater than 200 µM and an IC50 of 105 µM.
In the case of `C#CCN(C(=O)C(F)(F)F)C(/C=C\C(=O)OC)(C(=O)OCC)C(=O)OCC`, the EC50 is greater than 200 µM and the 50% inhibitory concentration (IC50) worked out at 83.2 µM.
For `Cc1cc(O)c(C=NC(=S)c2cccnc2)c(=O)o1` the same measures were greater than 200 µM and 77.6 µM.
Turning to `Nc1nc(N)c(C2=CCNCC2)c(=O)[nH]1`, the EC50 is greater than 200 µM and the concentration for half-maximal inhibition (IC50) is greater than 200 µM.
On to `Cn1c(=O)nc2n(-c3ccc(Br)cc3)c3ccccc3nc-2c1=O`, for which the result was inactive.
For the compound `COc1ccc(-c2ccccc2)cc1S`, the EC50 was greater than 200 µM and the IC50 was greater than 200 µM.
Take `NCCCc1nonc1C(=O)O`: the EC50 was greater than 200 µM and the IC50 was greater than 200 µM.
Consider `CN(C)CCCN=C(N)N`, for which the EC50 is greater than 200 µM and the IC50 was greater than 200 µM.
With `CN(C)c1ccc(C(=C(c2ccc(N(C)C)cc2)c2ccc(N(C)C)cc2)c2ccc(N(C)C)cc2)cc1`, the EC50 is greater than 24.5 µM and the half-maximal inhibitory concentration (IC50) came out at 1 µM.
For the compound `CC1=NNC(=O)C1C1(C(=O)O)CC(c2c[nH]c3ccccc23)=NC(=S)N1` (stereo unspecified), the EC50 is greater than 100 µM and the IC50 was determined as 69.2 µM.
